ChEMBL document CHEMBL1201862, “PubChem BioAssay data set” (2004)
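Exposure lasted 48 hours, with cells grown in 96-well plates and compounds tested at five concentrations. The concentration for 50% growth inhibition is given as GI50.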 Calls of active or inactive are those of the source. Rule as the data show it: active = GI50 up to about 1.1 µM and inactive = higher.

Assays:
Test in all cases: DTP human tumour cell line panel, 48 h
786-0 = system: 786-0
A498 = system: A498
A549 = system: A549
ACHN = system: ACHN
CAKI-1 = system: CAKI-1
COLO 205 = system: COLO 205
DLD-1 = system: DLD-1
DMS-114 = system: DMS-114
DMS-273 = system: DMS-273
EKVX = system: EKVX
HCT-116 = system: HCT-116
HCT-15 = system: HCT-15
HOP-18 = system: HOP-18
HOP-92 = system: HOP-92
HT-29 = system: HT-29
IGROV-1 = system: IGROV-1
K562 = system: K562
KM-20L2 = system: KM-20L2
KM12 = system: KM12
LXFL 529 = system: LXFL 529
M14 = system: M14
MOLT-4 = system: MOLT-4
NCI-H23 = system: NCI-H23
NCI-H460 = system: NCI-H460
OVCAR-4 = system: OVCAR-4
OVCAR-5 = system: OVCAR-5
OVCAR-8 = system: OVCAR-8
RPMI-8226 = system: RPMI-8226
SF-268 = system: SF-268
SK-MEL-28 = system: SK-MEL-28
SK-MEL-5 = system: SK-MEL-5
SK-OV-3 = system: SK-OV-3
SNB-19 = system: SNB-19
SNB-78 = system: SNB-78
SW-620 = system: SW-620
TK-10 = system: TK-10
U-251 = system: U-251
UACC-257 = system: UACC-257
UACC-62 = system: UACC-62
UO-31 = system: UO-31
CCRF-CEM = system: CCRF-CEM
HL-60 = system: HL-60
HOP-62 = system: HOP-62
LOX IMVI = system: LOX IMVI
M19-MEL = system: M19-MEL
Malme-3M = system: Malme-3M
NCI-H226 = system: NCI-H226
NCI-H522 = system: NCI-H522
OVCAR-3 = system: OVCAR-3
RXF 393 = system: RXF 393
SF-295 = system: SF-295
SF-539 = system: SF-539
SK-MEL-2 = system: SK-MEL-2
SN12C = system: SN12C
SNB-75 = system: SNB-75
XF498 = system: XF498
DU-145 = system: DU-145
HCC 2998 = system: HCC 2998
SR = system: SR

## c1ccc2c(c1)[nH]c1c2nc2ccccn21
786-0
  GI50: > 100 µM (inactive)
A498
  GI50: > 100 µM (inactive)
A549
  GI50: > 100 µM (inactive)
ACHN
  GI50: > 100 µM (inactive)
CAKI-1
  GI50: > 100 µM (inactive)
COLO 205
  GI50: > 100 µM (inactive)
DLD-1
  GI50: > 100 µM (inactive)
DMS-114
  GI50: > 100 µM (inactive)
DMS-273
  GI50: > 100 µM (inactive)
EKVX
  GI50: > 100 µM (inactive)
HCT-116
  GI50: > 100 µM (inactive)
HCT-15
  GI50: > 100 µM
HOP-18
  GI50: > 100 µM (inactive)
HOP-92
  GI50: > 100 µM (inactive)
HT-29
  GI50: > 100 µM (inactive)
IGROV-1
  GI50: > 100 µM (inactive)
K562
  GI50: > 100 µM (inactive)
KM-20L2
  GI50: > 100 µM (inactive)
KM12
  GI50: > 100 µM (inactive)
LXFL 529
  GI50: > 100 µM (inactive)
M14
  GI50: > 100 µM (inactive)
MOLT-4
  GI50: > 100 µM (inactive)
NCI-H23
  GI50: > 100 µM (inactive)
NCI-H460
  GI50: > 100 µM (inactive)
OVCAR-4
  GI50: > 100 µM (inactive)
OVCAR-5
  GI50: > 100 µM (inactive)
OVCAR-8
  GI50: > 100 µM (inactive)
RPMI-8226
  GI50: > 100 µM (inactive)
SF-268
  GI50: > 100 µM (inactive)
SK-MEL-28
  GI50: > 100 µM (inactive)
SK-MEL-5
  GI50: > 100 µM (inactive)
SK-OV-3
  GI50: > 100 µM (inactive)
SNB-19
  GI50: > 100 µM (inactive)
SNB-78
  GI50: > 100 µM (inactive)
SW-620
  GI50: > 100 µM (inactive)
TK-10
  GI50: 69 µM (inactive)
U-251
  GI50: > 100 µM (inactive)
UACC-257
  GI50: > 100 µM (inactive)
UACC-62
  GI50: > 100 µM (inactive)
UO-31
  GI50: > 100 µM (inactive)

## NC(=S)N/N=C/C(=C/Nc1ccccc1)[N+](=O)[O-]
786-0
  GI50: > 100 µM (inactive)
A549
  GI50: > 100 µM (inactive)
ACHN
  GI50: > 100 µM (inactive)
CAKI-1
  GI50: > 100 µM (inactive)
CCRF-CEM
  GI50: > 100 µM (inactive)
COLO 205
  GI50: > 100 µM (inactive)
DLD-1
  GI50: > 100 µM (inactive)
DMS-114
  GI50: 15.7 µM (inactive)
EKVX
  GI50: > 100 µM (inactive)
HCT-116
  GI50: > 100 µM (inactive)
HCT-15
  GI50: > 100 µM
HL-60
  GI50: > 100 µM (inactive)
HOP-62
  GI50: > 100 µM (inactive)
HOP-92
  GI50: > 100 µM (inactive)
HT-29
  GI50: > 100 µM (inactive)
IGROV-1
  GI50: > 100 µM (inactive)
K562
  GI50: > 100 µM (inactive)
KM-20L2
  GI50: > 100 µM (inactive)
LOX IMVI
  GI50: > 100 µM (inactive)
LXFL 529
  GI50: > 100 µM (inactive)
M14
  GI50: > 100 µM (inactive)
M19-MEL
  GI50: > 100 µM (inactive)
Malme-3M
  GI50: > 100 µM (inactive)
NCI-H226
  GI50: 53 µM (inactive)
NCI-H23
  GI50: > 100 µM (inactive)
NCI-H522
  GI50: > 100 µM (inactive)
OVCAR-3
  GI50: > 100 µM (inactive)
OVCAR-4
  GI50: > 100 µM (inactive)
OVCAR-5
  GI50: > 100 µM (inactive)
OVCAR-8
  GI50: > 100 µM (inactive)
RPMI-8226
  GI50: > 100 µM (inactive)
RXF 393
  GI50: > 100 µM (inactive)
SF-268
  GI50: > 100 µM (inactive)
SF-295
  GI50: > 100 µM (inactive)
SF-539
  GI50: > 100 µM (inactive)
SK-MEL-28
  GI50: > 100 µM (inactive)
SK-MEL-2
  GI50: > 100 µM (inactive)
SK-OV-3
  GI50: > 100 µM (inactive)
SN12C
  GI50: > 100 µM (inactive)
SNB-19
  GI50: > 100 µM (inactive)
SNB-75
  GI50: > 100 µM (inactive)
SW-620
  GI50: > 100 µM (inactive)
TK-10
  GI50: > 100 µM (inactive)
UACC-257
  GI50: > 100 µM (inactive)
UACC-62
  GI50: > 100 µM (inactive)
XF498
  GI50: > 100 µM (inactive)

## O/N=C1/CCCC/C1=C/C=C/c1ccccc1
786-0
  GI50: 23.2 µM (inactive)
A498
  GI50: 20.9 µM (inactive)
A549
  GI50: 22.8 µM (inactive)
ACHN
  GI50: 25.6 µM (inactive)
CAKI-1
  GI50: 35.7 µM (inactive)
CCRF-CEM
  GI50: 20.6 µM (inactive)
COLO 205
  GI50: 19.4 µM (inactive)
DLD-1
  GI50: 29.6 µM (inactive)
DU-145
  GI50: 22.1 µM (inactive)
HCC 2998
  GI50: 22.1 µM (inactive)
HCT-116
  GI50: 15.7 µM (inactive)
HCT-15
  GI50: 14.9 µM
HL-60
  GI50: 13.1 µM (inactive)
HOP-18
  GI50: 25.8 µM (inactive)
HOP-92
  GI50: 15.5 µM (inactive)
HT-29
  GI50: 18.3 µM (inactive)
IGROV-1
  GI50: 16.5 µM (inactive)
K562
  GI50: 18.4 µM (inactive)
KM-20L2
  GI50: 18.5 µM (inactive)
KM12
  GI50: 20.1 µM (inactive)
LOX IMVI
  GI50: 17.2 µM (inactive)
LXFL 529
  GI50: 26 µM (inactive)
M14
  GI50: 21.2 µM (inactive)
M19-MEL
  GI50: 19.7 µM (inactive)
MOLT-4
  GI50: 19 µM (inactive)
Malme-3M
  GI50: 21.3 µM (inactive)
NCI-H226
  GI50: 23.6 µM (inactive)
NCI-H23
  GI50: 22.8 µM (inactive)
NCI-H460
  GI50: 22.7 µM (inactive)
NCI-H522
  GI50: 19.1 µM (inactive)
OVCAR-3
  GI50: 17.9 µM (inactive)
OVCAR-4
  GI50: 30.3 µM (inactive)
OVCAR-5
  GI50: 26.7 µM (inactive)
OVCAR-8
  GI50: 41.9 µM (inactive)
RPMI-8226
  GI50: 18.6 µM (inactive)
RXF 393
  GI50: 19.4 µM (inactive)
SF-268
  GI50: 19.1 µM (inactive)
SF-295
  GI50: 21.8 µM (inactive)
SF-539
  GI50: 20.2 µM (inactive)
SK-MEL-28
  GI50: 3.42 µM (inactive)
SK-MEL-2
  GI50: 17.7 µM (inactive)
SK-MEL-5
  GI50: 16.5 µM (inactive)
SK-OV-3
  GI50: 39 µM (inactive)
SN12C
  GI50: 17.8 µM (inactive)
SNB-19
  GI50: 48 µM (inactive)
SNB-75
  GI50: 20.4 µM (inactive)
SNB-78
  GI50: 25.5 µM (inactive)
SR
  GI50: 5.71 µM (inactive)
SW-620
  GI50: 26.5 µM (inactive)
TK-10
  GI50: 29 µM (inactive)
U-251
  GI50: 16.7 µM (inactive)
UACC-257
  GI50: 24.9 µM (inactive)
UACC-62
  GI50: 18.6 µM (inactive)
UO-31
  GI50: 20.6 µM (inactive)
